# Biological target: T1, NK3 receptor (Homo sapiens, UniProt P29371)
# T1 construct: host or cells: Chinese hamster ovary cells (membranes)
# T1 sequence (P29371 1-465): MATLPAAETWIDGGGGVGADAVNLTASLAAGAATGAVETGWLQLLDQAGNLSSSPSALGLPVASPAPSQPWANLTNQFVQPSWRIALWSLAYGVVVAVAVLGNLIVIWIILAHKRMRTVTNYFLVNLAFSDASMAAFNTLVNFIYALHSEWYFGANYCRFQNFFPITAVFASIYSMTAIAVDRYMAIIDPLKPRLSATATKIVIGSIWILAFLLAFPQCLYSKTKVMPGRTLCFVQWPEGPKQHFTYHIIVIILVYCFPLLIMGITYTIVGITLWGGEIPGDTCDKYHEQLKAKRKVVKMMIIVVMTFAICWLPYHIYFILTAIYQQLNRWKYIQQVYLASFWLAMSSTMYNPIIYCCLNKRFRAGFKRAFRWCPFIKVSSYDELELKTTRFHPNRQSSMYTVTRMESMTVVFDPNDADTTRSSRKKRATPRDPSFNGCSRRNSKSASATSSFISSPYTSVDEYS
# Assay: NK3 receptor binding assay, [125I]-[MePhe7]neurokinin B, Chinese hamster ovary cell membranes
# Details: competition with [125I]-[MePhe7]neurokinin B 40-100 pM, 90 minutes at 22° C., CHO cell membranes
row,IC50 [nM],Compound
1,1530,"CC(Cc1ccccc1)(NC(=O)[C@H](Cc1ccccc1)NC(=O)OCc1ccc(Cl)c(Cl)c1)C(N)=O (mixture of isomers) [Example 18, DL-Phenylalaninamide, N-[[(3,4-dichlorophenyl)-methoxy]carbonyl]-L-phenylalanyl-α-methyl-]"
2,83,COc1ccc(CCCCNC(=O)[C@@](C)(Cc2ccccc2)NC(=O)[C@H](Cc2ccccc2)NC(=O)OC(C)(C)C)cc1 [Example 3]
3,77,"CC(C)(C)OC(=O)N[C@@H](Cc1ccccc1)C(=O)NC(C)(Cc1ccccc1)C(=O)NCCCCCc1ccccc1 (mixture of isomers) [Example 6, DL-Phenylalaninamide, N-[(1,1-dimethylethoxy)carbonyl]-L-phenylalanyl-α-methyl-N-(5-phenylpentyl)-]"
4,123,"CC(C)CCNC(=O)C(C)(Cc1ccccc1)NC(=O)[C@H](Cc1ccccc1)NC(=O)OC(C)(C)C (mixture of isomers) [Example 5, DL-Phenylalaninamide, N-[(1,1-dimethylethoxy)carbonyl]-L-phenylalanyl-α-methyl-N-3-methylbutyl-]"
5,556,"CC(C)(C)OC(=O)N[C@@H](Cc1ccccc1)C(=O)NC(C)(Cc1ccccc1)C(=O)NC1CCCC1 (mixture of isomers) [Example 7, DL-Phenylalaninamide, N-[(1,1-dimethylethoxy)carbonyl]-L-phenylalanyl-N-cyclopentyl-α-methyl-]"
6,719,"CC(C)(C)OC(=O)N[C@@H](Cc1ccccc1)C(=O)NC(C)(Cc1ccccc1)C(=O)NCC1CCC(C(=O)O)CC1 (mixture of isomers) [Example 13, DL-Phenylalaninamide, N-[(1,1-dimethylethoxy)carbonyl]-L-phenylalanyl-N-[(4-carboxycyclohexyl)methyl]-α-methyl-, trans-]"
7,88,"CC(C)(C)OC(=O)N[C@@H](Cc1ccccc1)C(=O)NC(C)(Cc1ccccc1)C(=O)NCCCc1ccc(O)cc1 (mixture of isomers) [Example 4, DL-Phenylalaninamide, N-[(1,1-dimethylethoxy)carbonyl]-L-phenylalanyl-N-[3-(4-hydroxyphenyl)propyl]-α-methyl-]"
8,1220,"CC(Cc1ccccc1)(NC(=O)[C@H](Cc1ccccc1)NC(=O)OCC1CCCCC1)C(N)=O (mixture of isomers) [Example 16, DL-Phenylalaninamide, N-[(cyclohexylmethoxy)carbonyl]-L-phenylalanyl-α-methyl-]"
9,904,"CC(C)(C)OC(=O)NC(Cc1cccc(Cl)c1)C(=O)N[C@](C)(Cc1ccccc1)C(N)=O (mixture of isomers) [Example 21, D-Phenylalaninamide, 3-chloro-N-[(1,1-dimethylethoxy)-carbonyl]-DL-phenylalanyl-α-methyl-]"
10,1350,"CC(C)(C)OC(=O)N[C@@H](Cc1ccccc1)C(=O)NC(C)(Cc1cccc(Cl)c1)C(N)=O (mixture of isomers) [Example 20, DL-Phenylalaninamide, N-[(1,1-dimethylethoxy)carbonyl]-L-phenylalanyl-3-chloro-α-methyl-]"
11,141,"CC(C)(C)OC(=O)N[C@@H](Cc1ccccc1)C(=O)NC(C)(Cc1ccccc1)C(=O)NCCc1ccc(Cl)cc1 (mixture of isomers) [Example 12, DL-Phenylalaninamide, N-[(1,1-dimethylethoxy)carbonyl]-L-phenylalanyl-N-[2-(4-chlorophenyl)ethyl]-α-methyl-]"
12,4330,"CC(C)(C)OC(=O)NC(CNC(Cc1ccccc1)C(N)=O)Cc1ccccc1 (stereo not drawn) [Example 22, Carbamic acid, [2-[[2-amino-2-oxo-1-(phenylmethyl)-ethyl]amino]-1-(phenylmethyl)ethyl]-, 1,1-dimethylethyl ester]"
13,129,"CC(C)(C)OC(=O)N[C@@H](Cc1ccccc1)C(=O)NC(C)(Cc1ccccc1)C(=O)NCCC1CCCC1 (mixture of isomers) [Example 11, DL-Phenylalaninamide, N-[(1,1-dimethylethoxy)carbonyl]-L-phenylalanyl-N-(2-cyclopentylethyl)-α-methyl-]"
14,180,"CC(=O)NCCNC(=O)C(C)(Cc1ccccc1)NC(=O)[C@H](Cc1ccccc1)NC(=O)OC(C)(C)C (mixture of isomers) [Example 10, DL-Phenylalaninamide, N-[(1,1-dimethylethoxy)carbonyl]-L-phenylalanyl-N-[2-(acetylamino)ethyl]-α-methyl-]"
15,3060,"DL-Phenylalaninamide, N-[[(octahydro-2-naphthalenyl)-oxy]carbonyl]-L-phenylalanyl-α-methyl [Example 19]"
16,1310,"CC(C)COC(=O)N[C@@H](Cc1ccccc1)C(=O)NC(C)(Cc1ccccc1)C(N)=O (mixture of isomers) [Example 17, DL-Phenylalaninamide, N-[(2-methylpropoxy)carbonyl]-L-phenylalanyl-α-methyl-]"

# Biological target: T2, NK3 (Cavia porcellus, UniProt P30098)
# T2 sequence (P30098 1-440): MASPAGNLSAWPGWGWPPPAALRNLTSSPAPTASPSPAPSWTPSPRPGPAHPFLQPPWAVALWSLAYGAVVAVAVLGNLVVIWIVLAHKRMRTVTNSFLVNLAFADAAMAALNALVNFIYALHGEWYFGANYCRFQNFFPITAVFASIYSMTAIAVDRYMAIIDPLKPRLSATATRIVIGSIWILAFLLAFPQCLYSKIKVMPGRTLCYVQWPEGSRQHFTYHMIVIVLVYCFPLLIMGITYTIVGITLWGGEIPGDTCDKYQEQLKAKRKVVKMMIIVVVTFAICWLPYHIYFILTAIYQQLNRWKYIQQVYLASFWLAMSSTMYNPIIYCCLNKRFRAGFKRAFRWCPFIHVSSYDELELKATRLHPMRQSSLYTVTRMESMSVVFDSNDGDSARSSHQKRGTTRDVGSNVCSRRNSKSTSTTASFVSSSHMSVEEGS
# Assay: guinea pig ileum assay (Schild analysis of contractile responses)
# Format: cell-based
# Set-up: in vitro peripheral guinea pig ileum assay; from tissue; host or cells: guinea pig ileum (organ bath)
# Details: NK3 antagonist activity; antagonist dissociation constant by Schild analysis
row,Kb [nM],Compound
1,10,"CC(C)(C)OC(=O)N[C@@H](Cc1ccccc1)C(=O)N[C@](C)(Cc1ccccc1)C(=O)NCCCCCCCCC(N)=O [Example 2, D-Phenylalaninamide, N-[(1,1-dimethylethoxy)carbonyl]-L-phenylalanyl-N-(9-amino-9-oxononyl)-α-methyl-]"

# Biological target: T2, NK3
# Assay: guinea pig medial habenula assay (block of senktide-induced increases in firing rate, brain slice)
# Format: cell-based
# Set-up: guinea pig medial habenula neurones in a brain slice preparation in vitro; from tissue; host or cells: guinea pig medial habenula brain slice
# Details: NK3 antagonist activity; mean equilibrium constant against senktide; brain slice in vitro; read-out: Guinea Pig Medial Habenula (Ke)
row,Kd [nM],Compound
1,25,"CC(C)(C)OC(=O)N[C@@H](Cc1ccccc1)C(=O)N[C@](C)(Cc1ccccc1)C(=O)NCCCCCCCCC(N)=O [Example 2, D-Phenylalaninamide, N-[(1,1-dimethylethoxy)carbonyl]-L-phenylalanyl-N-(9-amino-9-oxononyl)-α-methyl-]"

# From patent publication US5767088A, “Tachykinin antagonists” (Warner-Lambert Company, priority 1996, dated 1998)
